Data from PubChem BioAssay AID248 (DTP/NCI, 2004).
Several values for one entry are separate records, joined by “and”; a condition that tells them apart may be missing. Identical values can stand only once. Toxic doses and inconclusive results are not listed.

Test system: L1210 leukemia ip in BDF1 mice, survival T/C
Experiment: NCI In Vivo Anticancer Drug Screen. Data for tumor model L1210 Leukemia (intraperitoneal) in B6D2F1 (BDF1) mice
Conditions: endpoint: mean survival time, higher = longer survival
Outline: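 Transplanted-tumor mice were given test agent; controls received vehicle only. Survival readings from the two groups were divided (treated over control).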

[1] = dose: 200.0 mg/kg/injection, schedule: Q01DX001 (ip), vehicle: saline
[2] = dose: 100.0 mg/kg/injection, schedule: Q01DX009 (ip), vehicle: Klucel (hydroxypropylcellulose) (HPC)
[3] = dose: 200.0 mg/kg/injection, schedule: Q01DX009 (ip), vehicle: Klucel (hydroxypropylcellulose) (HPC)
[4] = dose: 100.0 mg/kg/injection, schedule: Q04DX002 (ip), vehicle: Klucel (hydroxypropylcellulose) (HPC)
[5] = dose: 12.5 mg/kg/injection, schedule: Q01DX009 (ip), vehicle: Klucel (hydroxypropylcellulose) (HPC)
[6] = dose: 25.0 mg/kg/injection, schedule: Q01DX009 (ip), vehicle: Klucel (hydroxypropylcellulose) (HPC)
[7] = dose: 100.0 mg/kg/injection, schedule: Q01DX001 (ip), vehicle: saline
[8] = dose: 400.0 mg/kg/injection, schedule: Q01DX001 (ip), vehicle: saline

For CC1CN1P(=S)(N1CC1C)N1CC1C (stereo unspecified), the T/C (dose: 2.5 mg/kg/injection, schedule: Q01DX Z (ip), vehicle: saline) was 92 % of control, the T/C (dose: 3.75 mg/kg/injection, schedule: Q01DX015 (ip), vehicle: saline) was 104 % of control and the T/C (dose: 5.0 mg/kg/injection, schedule: Q01DX Z (ip), vehicle: saline) was 95 % of control. For the same molecule, the T/C (dose: 6.0 mg/kg/injection, schedule: Q01DX001 (ip), vehicle: saline) was 100 % of control, the T/C (dose: 7.5 mg/kg/injection, schedule: Q01DX015 (ip), vehicle: saline) was 110 % of control and the T/C (dose: 10.0 mg/kg/injection, schedule: Q01DX Z (ip), vehicle: saline) was 98 % of control. For the same molecule, the T/C (dose: 12.0 mg/kg/injection, schedule: Q01DX001 (ip), vehicle: saline) was 113 % of control, the T/C (dose: 12.0 mg/kg/injection, schedule: Q01DX015 (ip), vehicle: saline) was 107 % of control and the T/C (dose: 20.0 mg/kg/injection, schedule: Q01DX Z (ip), vehicle: saline) was 101 % of control. The T/C (dose: 24.0 mg/kg/injection, schedule: Q01DX001 (ip), vehicle: saline) was 104 % of control, the T/C (dose: 48.0 mg/kg/injection, schedule: Q01DX001 (ip), vehicle: saline) was 108 % of control and the T/C (dose: 48.0 mg/kg/injection, schedule: Q01DX015 (ip), vehicle: saline) was 164 % of control. For the same molecule, the T/C (dose: 50.0 mg/kg/injection, schedule: Q01DX001 (ip), vehicle: saline) was 108 % of control, the T/C (dose: 60.0 mg/kg/injection, schedule: Q01DX015 (ip), vehicle: saline) was 102 % of control and the T/C (dose: 72.0 mg/kg/injection, schedule: Q01DX Z (ip), vehicle: saline) was 117 % of control. For the same molecule, the T/C (dose: 96.0 mg/kg/injection, schedule: Q01DX015 (ip), vehicle: saline) was 97 % of control, the T/C (dose: 96.0 mg/kg/injection, schedule: Q01DX Z (ip), vehicle: saline) was 90 % of control and the T/C (dose: 144.0 mg/kg/injection, schedule: Q01DX001 (ip), vehicle: saline) was 152 % of control and 153 % of control. For the same molecule, the T/C [1] was 112 % of control and the T/C (dose: 216.0 mg/kg/injection, schedule: Q01DX001 (ip), vehicle: saline) was 107 % of control.

With N#CC(C#N)=Cc1ccc2ccc3cccc4ccc1c2c34 the T/C (dose: 100.0 mg/kg/injection, schedule: Q04DX003 (ip), vehicle: Klucel (hydroxypropylcellulose) (HPC)) was 91 % of control, the T/C (dose: 200.0 mg/kg/injection, schedule: Q04DX003 (ip), vehicle: Klucel (hydroxypropylcellulose) (HPC)) was 93 % of control and the T/C (dose: 400.0 mg/kg/injection, schedule: Q04DX003 (ip), vehicle: Klucel (hydroxypropylcellulose) (HPC)) was 93 % of control.

In the case of COC(=O)C1C(C(=O)OC)C2(Cl)C(Cl)=C(Cl)C1(Cl)C2(Cl)Cl (stereo unspecified), the T/C [2] is reported as 98 % of control and the T/C [3] is reported as 104 % of control.

With CCCCCCCCN(C)/N=N/c1nc[nH]c1C(N)=O the T/C [2] was 113 % of control.

COC(=O)c1ccc(=O)n(C/C=C(\C)CCC(=O)O)c1 was tested, and the T/C (dose: 100.0 mg/kg/injection, schedule: Q01DX009 (ip), vehicle: water) was 96 % of control, the T/C (dose: 100.0 mg/kg/injection, schedule: Q04DX003 (ip), vehicle: other) was 93 % of control and the T/C (dose: 200.0 mg/kg/injection, schedule: Q01DX009 (ip), vehicle: water) was 102 % of control. For the same molecule, the T/C (dose: 200.0 mg/kg/injection, schedule: Q04DX003 (ip), vehicle: other) was 93 % of control, the T/C (dose: 400.0 mg/kg/injection, schedule: Q01DX009 (ip), vehicle: water) was 98 % of control and the T/C (dose: 400.0 mg/kg/injection, schedule: Q04DX003 (ip), vehicle: other) was 91 % of control.

With CCCNC(=O)Oc1ccc(-c2ccccc2)cc1Cl the T/C (dose: 100.0 mg/kg/injection, schedule: Q04DX002 (ip), vehicle: saline with Tween-80) was 113 % of control, the T/C (dose: 200.0 mg/kg/injection, schedule: Q04DX002 (ip), vehicle: saline with Tween-80) was 100 % of control and the T/C (dose: 400.0 mg/kg/injection, schedule: Q04DX002 (ip), vehicle: saline with Tween-80) was 97 % of control.

With CCN(CC)c1ccc(/C=C2/C=Cc3ccccc32)cc1 the T/C (dose: 100.0 mg/kg/injection, schedule: Q01DX001 (ip), vehicle: carboxymethylcellulose (CMC)) was 92 % of control, the T/C (dose: 200.0 mg/kg/injection, schedule: Q01DX001 (ip), vehicle: carboxymethylcellulose (CMC)) was 90 % of control and the T/C (dose: 400.0 mg/kg/injection, schedule: Q01DX001 (ip), vehicle: carboxymethylcellulose (CMC)) was 95 % of control.

For OC1(c2ccccc2)CCN(Cc2ccccc2)CC1, the T/C (dose: 25.0 mg/kg/injection, schedule: Q01DX001 (ip), vehicle: Klucel (hydroxypropylcellulose) (HPC)) was 106 % of control, the T/C (dose: 50.0 mg/kg/injection, schedule: Q01DX001 (ip), vehicle: Klucel (hydroxypropylcellulose) (HPC)) was 118 % of control and the T/C (dose: 100.0 mg/kg/injection, schedule: Q01DX001 (ip), vehicle: Klucel (hydroxypropylcellulose) (HPC)) was 93 % of control and 107 % of control.

In the case of Nc1nc2n(n1)C(=O)C(=O)N2, the T/C (dose: 100.0 mg/kg/injection, schedule: Q01DX005 (ip), vehicle: Klucel (hydroxypropylcellulose) (HPC)) is reported as 109 % of control, the T/C [2] is reported as 101 % of control and the T/C [4] is reported as 101 % of control. For the same molecule, the T/C (dose: 200.0 mg/kg/injection, schedule: Q01DX005 (ip), vehicle: Klucel (hydroxypropylcellulose) (HPC)) was 98 % of control, the T/C [3] was 104 % of control and the T/C (dose: 200.0 mg/kg/injection, schedule: Q04DX002 (ip), vehicle: Klucel (hydroxypropylcellulose) (HPC)) was 96 % of control. The T/C (dose: 400.0 mg/kg/injection, schedule: Q01DX005 (ip), vehicle: Klucel (hydroxypropylcellulose) (HPC)) was 95 % of control, the T/C (dose: 400.0 mg/kg/injection, schedule: Q01DX009 (ip), vehicle: Klucel (hydroxypropylcellulose) (HPC)) was 96 % of control and the T/C (dose: 400.0 mg/kg/injection, schedule: Q04DX002 (ip), vehicle: Klucel (hydroxypropylcellulose) (HPC)) was 96 % of control.

CCCCCOc1nccc(N)n1 was tested, and the T/C (dose: 25.0 mg/kg/injection, schedule: Q01DX001 (ip), vehicle: saline with Tween-80) was 105 % of control, the T/C (dose: 50.0 mg/kg/injection, schedule: Q01DX001 (ip), vehicle: saline with Tween-80) was 92 % of control and the T/C (dose: 100.0 mg/kg/injection, schedule: Q01DX001 (ip), vehicle: saline with Tween-80) was 95 % of control.

O=C(Nc1ccc(Cl)cc1)c1cccc([N+](=O)[O-])c1O was tested, and the T/C (dose: 6.25 mg/kg/injection, schedule: Q01DX009 (ip), vehicle: Klucel (hydroxypropylcellulose) (HPC)) was 102 % of control, the T/C [5] was 106 % of control and the T/C [6] was 95 % of control.

In the case of Cc1cc(Cl)nc2ccc3ccccc3c12, the T/C [7] is reported as 96 % of control, the T/C [1] is reported as 93 % of control and the T/C [8] is reported as 89 % of control.

CC(C)=CCC/C(C)=C/CN1C(=O)C=CC1=O was tested, and the T/C (dose: 12.5 mg/kg/injection, schedule: Q01DX009 (ip), vehicle: water) was 91 % of control, the T/C (dose: 25.0 mg/kg/injection, schedule: Q01DX009 (ip), vehicle: water) was 86 % of control and the T/C (dose: 25.0 mg/kg/injection, schedule: Q04DX003 (ip), vehicle: water) was 97 % of control. For the same molecule, the T/C (dose: 50.0 mg/kg/injection, schedule: Q04DX003 (ip), vehicle: water) was 98 % of control and the T/C (dose: 100.0 mg/kg/injection, schedule: Q04DX003 (ip), vehicle: water) was 104 % of control.

CCCCNC(=O)/C=C/C(=O)NCCCC was tested, and the T/C (dose: 100.0 mg/kg/injection, schedule: Q04DX003 (ip), vehicle: saline with Tween-80) was 100 % of control, the T/C (dose: 200.0 mg/kg/injection, schedule: Q04DX003 (ip), vehicle: saline with Tween-80) was 100 % of control and the T/C (dose: 400.0 mg/kg/injection, schedule: Q04DX003 (ip), vehicle: saline with Tween-80) was 100 % of control.

For c1ccc(NC2=NCCO2)nc1, the T/C (dose: 50.0 mg/kg/injection, schedule: Q01DX009 (ip), vehicle: saline with Tween-80) was 100 % of control, the T/C (dose: 100.0 mg/kg/injection, schedule: Q01DX009 (ip), vehicle: saline with Tween-80) was 94 % of control and the T/C (dose: 200.0 mg/kg/injection, schedule: Q01DX009 (ip), vehicle: saline with Tween-80) was 102 % of control.

For NC(=S)N/N=C/c1cccn1-c1ccc2ncccc2c1[N+](=O)[O-], the T/C (dose: 25.0 mg/kg/injection, schedule: Q04DX002 (ip), vehicle: Klucel (hydroxypropylcellulose) (HPC)) was 93 % of control, the T/C (dose: 50.0 mg/kg/injection, schedule: Q04DX002 (ip), vehicle: Klucel (hydroxypropylcellulose) (HPC)) was 93 % of control and the T/C [4] was 90 % of control.

Cc1ccc(C2(C)CC/C(=N/N=C3/CCC(C)(c4ccc(C)c(C)c4)c4cc(C)c(C)cc43)c3cc(C)c(C)cc32)cc1C (stereo unspecified) was tested, and the T/C [7] was 93 % of control, the T/C [1] was 101 % of control and the T/C [8] was 98 % of control.

CC(C)CC(C=NCC(CCN(C)C)(CC(C)C)c1cccc2ccccc12)(CCN(C)C)c1cccc2ccccc12 (stereo unspecified) was tested, and the T/C [5] was 106 % of control, the T/C (dose: 12.5 mg/kg/injection, schedule: Q04DX003 (ip), vehicle: Klucel (hydroxypropylcellulose) (HPC)) was 106 % of control and the T/C [6] was 88 % of control. For the same molecule, the T/C (dose: 25.0 mg/kg/injection, schedule: Q04DX003 (ip), vehicle: Klucel (hydroxypropylcellulose) (HPC)) was 94 % of control and the T/C (dose: 50.0 mg/kg/injection, schedule: Q04DX003 (ip), vehicle: Klucel (hydroxypropylcellulose) (HPC)) was 92 % of control.
